Measured values: the supplement of paper PMC12420376

Tests used:
KURAMOCHI = test: drug sensitivity score (DSS2) on cancer cell count; higher = more sensitive; extreme values may be limits of the assay; settings: 72 h
In short: (§1)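 Ovarian cancer cells grown alone or 1:1 with lung or skin fibroblasts in direct co-culture were treated for 72 h on 384-well plates carrying 528 approved and investigational compounds at 5 concentrations. Fixed cells were stained for CK8/18 with Hoechst and imaged to count cancer cells. A drug sensitivity score was then derived in Breeze from logistic curve fits.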

OVCAR8 = test: as above; settings: 72 h
In short: as §1

[1] = co-cultured fibroblast: BJHTERT
[2] = co-cultured fibroblast: none (monoculture)

Structure (SMILES) | drug sensitivity score (KURAMOCHI; [1]) | drug sensitivity score (KURAMOCHI; co-cultured fibroblast: WI38) | drug sensitivity score (KURAMOCHI; [2]) | drug sensitivity score (OVCAR8; [1]) | drug sensitivity score (OVCAR8; co-cultured fibroblast: WI38) | drug sensitivity score (OVCAR8; [2])
CN[C@@H](C)C(=O)N[C@H](C(=O)N1CCC[C@H]1c1nc(C(=O)c2ccc(F)cc2)cs1)C1CCCCC1 [NVP-LCL161] | 4 DSS | 1.9 DSS | 2.5 DSS | 34.7 DSS | 27.7 DSS | 23.2 DSS
Cn1c(Nc2ccc(C(F)(F)F)cc2)nc2cc(Oc3ccnc(-c4ncc(C(F)(F)F)[nH]4)c3)ccc21 [NVP-RAF265] | 2.2 DSS | 0.8 DSS | 7.6 DSS | 2.2 DSS | 0 DSS | 3.2 DSS
CC1(C)CCC(c2ccc(Cl)cc2)=C(CN2CCN(c3ccc(C(=O)NS(=O)(=O)c4ccc(N[C@H](CCN5CCOCC5)CSc5ccccc5)c(S(=O)(=O)C(F)(F)F)c4)cc3)CC2)C1 [Navitoclax] | 2.4 DSS | 3.1 DSS | 1.1 DSS | 7.5 DSS | 0 DSS | 0.3 DSS
CN1C(=O)N[C@H](Cc2c[nH]c3c(Cl)cccc23)C1=O [Necrostatin 2] | 0 DSS | 0 DSS | 0 DSS | 0 DSS | 0 DSS | 0 DSS
O=c1ncn2nc(Sc3ccc(F)cc3F)ccc2c1-c1c(Cl)cccc1Cl [Neflamapimod] | 9.1 DSS | 0.7 DSS | 14.9 DSS | 0 DSS | 0 DSS | 0.3 DSS
COc1nc(N)nc2c1ncn2[C@@H]1O[C@H](CO)[C@@H](O)[C@@H]1O [Nelarabine] | 0 DSS | 0 DSS | 0 DSS | 1 DSS | 3.4 DSS | 0.3 DSS
CCOc1cc2ncc(C#N)c(Nc3ccc(OCc4ccccn4)c(Cl)c3)c2cc1NC(=O)/C=C/CN(C)C [Neratinib] | 9 DSS | 3.6 DSS | 1.4 DSS | 7 DSS | 3 DSS | 6 DSS
Cc1cn(-c2cc(NC(=O)c3ccc(C)c(Nc4nccc(-c5cccnc5)n4)c3)cc(C(F)(F)F)c2)cn1 [Nilotinib] | 0 DSS | 8 DSS | 9.8 DSS | 0 DSS | 11 DSS | 3 DSS
CC1(C)NC(=O)N(c2ccc([N+](=O)[O-])c(C(F)(F)F)c2)C1=O [Nilutamide] | 0 DSS | 3.2 DSS | 14.5 DSS | 0 DSS | 0 DSS | 0 DSS
COC(=O)c1ccc2c(c1)NC(=O)/C2=C(\Nc1ccc(N(C)C(=O)CN2CCN(C)CC2)cc1)c1ccccc1 [Nintedanib] | 8.2 DSS | 2.7 DSS | 4.6 DSS | 9.8 DSS | 4.6 DSS | 7.9 DSS
NC(=O)c1cccc2cn(-c3ccc([C@@H]4CCCNC4)cc3)nc12 [Niraparib] | 5.8 DSS | 6.8 DSS | 5.1 DSS | 14.9 DSS | 8.1 DSS | 9 DSS
CC(O)c1cc(C(=O)N[C@@H](C)Cn2ccc(-c3ccc(C#N)c(Cl)c3)n2)n[nH]1 (some centres undefined) [ODM-201] | 1.3 DSS | 0 DSS | 3.7 DSS | 0.5 DSS | 0 DSS | 0 DSS
CC(=O)c1cnc2ccc(-c3cc(Cl)c(O)c(Cl)c3)nc2c1N[C@H]1CC[C@H](CN(C)C)CC1 [OTS167] | 14.9 DSS | 13.5 DSS | 11.7 DSS | 20.6 DSS | 16.1 DSS | 19.2 DSS
O=C(c1cc(Cc2n[nH]c(=O)c3ccccc23)ccc1F)N1CCN(C(=O)C2CC2)CC1 [Olaparib] | 4.6 DSS | 7.3 DSS | 11.4 DSS | 12.5 DSS | 6.9 DSS | 9 DSS
C=CC(=O)Nc1cccc(Oc2nc(Nc3ccc(N4CCN(C)CC4)cc3)nc3ccsc23)c1 [Olmutinib] | 2.1 DSS | 2.7 DSS | 0 DSS | 0 DSS | 0 DSS | 0 DSS
COC(=O)C[C@](O)(CCCC(C)(C)O)C(=O)O[C@@H]1C(OC)=C[C@]23CCCN2CCc2cc4c(cc2[C@H]13)OCO4 [Omacetaxine] | 23.8 DSS | 24.5 DSS | 30.6 DSS | 29.3 DSS | 30.1 DSS | 29.8 DSS
CC1(C)CC[C@]2(NC(=O)C(C)(F)F)CC[C@]3(C)[C@H](C(=O)C=C4[C@@]5(C)C=C(C#N)C(=O)C(C)(C)[C@@H]5CC[C@]43C)[C@@H]2C1 [Omaveloxolone] | 17.2 DSS | 17.8 DSS | 20.1 DSS | 7 DSS | 20 DSS | 21.5 DSS
COc1ncc(-c2ccc3nccc(-c4ccnnc4)c3c2)cc1NS(=O)(=O)c1ccc(F)cc1F [Omipalisib] | 17.1 DSS | 17.9 DSS | 12.1 DSS | 8.9 DSS | 6.5 DSS | 13 DSS
CC(C)c1cc(C(=O)N2Cc3ccc(CN4CCN(C)CC4)cc3C2)c(O)cc1O [Onalespib] | 13 DSS | 14.6 DSS | 14.9 DSS | 17.4 DSS | 18.5 DSS | 23.5 DSS
